Values after ≈ are worked out from the molar mass of the structure shown. Read-outs that look alike come from different tables or passages of the source.
What was measured:
[1] = for Concentration in Epithelial Lining Fluid: single 2 mL dose, 25 mL ELF, 100 percent retained
CB2 receptor = CB2 receptor (Homo sapiens, UniProt P34972); details: unit inferred; read-out: Ki, CB2 receptor binding; cited from earlier work
E. coli (MTCC 732) = details: cited from earlier work
S. aureus = details: cited from earlier work
K. pneumoniae = details: cited from earlier work
P. aeruginosa = details: cited from earlier work
[2] = system: Herpes simplex virus type 1 (HSV-1); details: cited from earlier work
DENV-2 (Dengue Virus 2) = details: cited from earlier work
[3] = system: human lung carcinoma (A549) cell line; details: cited from earlier work
NCI-H358 cells = details: cited from earlier work
human whole blood = details: 102 μg/mL; cited from earlier work
[4] = cited from earlier work
mice [5] = test: NOAEL, oral, mice; details: for factor NOAEL over daily inhaled dose: 2 mL/dose 4 times per day of Table A2 composition; for NOAEL for a 62 kg adult human: extrapolated from mouse NOAEL
hTRPA1 = hTRPA1 (Homo sapiens, UniProt O75762); details: cited from earlier work
hTRPA1, sequence (O75762 whole entry): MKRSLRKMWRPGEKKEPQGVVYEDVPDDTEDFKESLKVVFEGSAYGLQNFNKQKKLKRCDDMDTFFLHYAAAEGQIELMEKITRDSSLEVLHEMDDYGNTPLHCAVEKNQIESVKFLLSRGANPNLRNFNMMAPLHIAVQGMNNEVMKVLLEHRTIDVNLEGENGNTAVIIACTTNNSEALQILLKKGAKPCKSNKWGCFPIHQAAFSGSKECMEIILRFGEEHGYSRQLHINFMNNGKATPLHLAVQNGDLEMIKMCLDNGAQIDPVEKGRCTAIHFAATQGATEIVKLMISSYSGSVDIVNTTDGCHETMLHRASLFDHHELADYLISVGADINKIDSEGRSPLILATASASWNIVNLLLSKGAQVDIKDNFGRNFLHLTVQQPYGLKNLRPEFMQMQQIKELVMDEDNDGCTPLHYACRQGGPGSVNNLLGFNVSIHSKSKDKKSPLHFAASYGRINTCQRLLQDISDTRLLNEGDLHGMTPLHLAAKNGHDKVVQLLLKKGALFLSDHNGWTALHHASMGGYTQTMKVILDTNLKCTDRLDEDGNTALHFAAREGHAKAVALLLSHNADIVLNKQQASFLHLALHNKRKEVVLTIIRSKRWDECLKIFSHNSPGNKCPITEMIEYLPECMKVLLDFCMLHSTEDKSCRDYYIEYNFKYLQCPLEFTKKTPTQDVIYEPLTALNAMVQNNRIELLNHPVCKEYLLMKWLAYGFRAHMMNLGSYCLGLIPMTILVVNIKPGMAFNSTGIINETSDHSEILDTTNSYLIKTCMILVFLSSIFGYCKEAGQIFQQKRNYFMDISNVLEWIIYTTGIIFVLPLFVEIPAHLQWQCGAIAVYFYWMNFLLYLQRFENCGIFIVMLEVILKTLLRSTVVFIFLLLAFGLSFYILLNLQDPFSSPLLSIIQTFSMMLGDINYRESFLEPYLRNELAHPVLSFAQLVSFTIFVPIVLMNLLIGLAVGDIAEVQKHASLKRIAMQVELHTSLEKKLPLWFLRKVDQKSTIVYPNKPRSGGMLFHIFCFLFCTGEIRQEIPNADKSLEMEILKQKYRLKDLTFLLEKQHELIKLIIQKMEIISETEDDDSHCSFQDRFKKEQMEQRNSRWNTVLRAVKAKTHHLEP

human TRPM8 (hTRPM8) = human TRPM8 (hTRPM8) (Homo sapiens, UniProt Q7Z2W7); details: cited from earlier work
human TRPM8 (hTRPM8), sequence (Q7Z2W7 whole entry): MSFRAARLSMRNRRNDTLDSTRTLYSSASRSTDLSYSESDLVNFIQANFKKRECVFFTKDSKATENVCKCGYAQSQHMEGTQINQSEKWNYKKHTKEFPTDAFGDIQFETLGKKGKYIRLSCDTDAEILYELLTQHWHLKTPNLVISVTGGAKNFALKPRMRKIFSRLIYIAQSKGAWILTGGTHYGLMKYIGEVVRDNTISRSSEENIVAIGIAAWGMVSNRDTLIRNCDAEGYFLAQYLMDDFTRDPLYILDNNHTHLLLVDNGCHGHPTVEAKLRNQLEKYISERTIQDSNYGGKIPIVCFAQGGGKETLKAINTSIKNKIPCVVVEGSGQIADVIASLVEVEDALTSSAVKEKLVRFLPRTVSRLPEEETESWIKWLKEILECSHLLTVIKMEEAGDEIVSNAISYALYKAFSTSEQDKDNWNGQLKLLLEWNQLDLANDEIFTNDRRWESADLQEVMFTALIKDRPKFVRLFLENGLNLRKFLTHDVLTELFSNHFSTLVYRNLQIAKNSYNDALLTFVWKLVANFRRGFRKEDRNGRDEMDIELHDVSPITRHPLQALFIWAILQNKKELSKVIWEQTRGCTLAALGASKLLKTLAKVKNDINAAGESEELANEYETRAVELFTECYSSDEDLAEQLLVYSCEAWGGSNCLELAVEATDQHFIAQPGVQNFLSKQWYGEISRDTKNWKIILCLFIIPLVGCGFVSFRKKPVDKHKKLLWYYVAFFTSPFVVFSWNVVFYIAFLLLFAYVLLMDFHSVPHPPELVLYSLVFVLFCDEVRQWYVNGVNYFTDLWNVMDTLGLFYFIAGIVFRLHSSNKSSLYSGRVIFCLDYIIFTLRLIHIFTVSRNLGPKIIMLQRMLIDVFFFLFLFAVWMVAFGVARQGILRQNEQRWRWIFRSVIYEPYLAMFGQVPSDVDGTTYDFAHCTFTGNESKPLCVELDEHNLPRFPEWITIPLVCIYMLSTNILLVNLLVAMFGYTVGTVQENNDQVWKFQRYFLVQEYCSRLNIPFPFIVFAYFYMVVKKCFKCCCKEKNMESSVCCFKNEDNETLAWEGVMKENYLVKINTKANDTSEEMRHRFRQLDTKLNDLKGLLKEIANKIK

TRPV1 = TRPV1 (Homo sapiens, UniProt Q8NER1); details: cited from earlier work
TRPV1, sequence (Q8NER1 whole entry): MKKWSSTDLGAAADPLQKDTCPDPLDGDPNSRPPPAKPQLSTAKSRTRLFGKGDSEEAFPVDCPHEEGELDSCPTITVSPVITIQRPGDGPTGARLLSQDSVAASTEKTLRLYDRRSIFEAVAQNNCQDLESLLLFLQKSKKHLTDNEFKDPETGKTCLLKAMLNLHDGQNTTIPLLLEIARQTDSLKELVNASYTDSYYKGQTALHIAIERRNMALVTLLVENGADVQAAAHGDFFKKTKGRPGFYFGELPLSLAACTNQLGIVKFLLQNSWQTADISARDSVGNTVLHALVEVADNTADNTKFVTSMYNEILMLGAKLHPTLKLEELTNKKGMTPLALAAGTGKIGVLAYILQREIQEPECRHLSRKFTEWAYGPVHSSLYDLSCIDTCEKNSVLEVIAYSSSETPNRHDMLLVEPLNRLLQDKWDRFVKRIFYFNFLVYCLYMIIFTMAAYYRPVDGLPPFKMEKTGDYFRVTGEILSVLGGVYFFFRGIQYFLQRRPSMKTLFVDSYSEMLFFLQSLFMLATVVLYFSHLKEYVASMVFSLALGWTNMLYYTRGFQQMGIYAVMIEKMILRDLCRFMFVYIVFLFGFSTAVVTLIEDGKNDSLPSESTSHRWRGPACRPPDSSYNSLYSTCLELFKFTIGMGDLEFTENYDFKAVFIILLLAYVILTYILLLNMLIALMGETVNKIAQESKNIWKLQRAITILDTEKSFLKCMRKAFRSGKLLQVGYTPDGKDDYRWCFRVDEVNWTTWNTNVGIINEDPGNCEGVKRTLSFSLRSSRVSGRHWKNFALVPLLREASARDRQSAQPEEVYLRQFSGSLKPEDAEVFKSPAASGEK

hTRPV2 = hTRPV2 (Homo sapiens, UniProt Q9Y5S1); details: cited from earlier work
hTRPV2, sequence (Q9Y5S1 whole entry): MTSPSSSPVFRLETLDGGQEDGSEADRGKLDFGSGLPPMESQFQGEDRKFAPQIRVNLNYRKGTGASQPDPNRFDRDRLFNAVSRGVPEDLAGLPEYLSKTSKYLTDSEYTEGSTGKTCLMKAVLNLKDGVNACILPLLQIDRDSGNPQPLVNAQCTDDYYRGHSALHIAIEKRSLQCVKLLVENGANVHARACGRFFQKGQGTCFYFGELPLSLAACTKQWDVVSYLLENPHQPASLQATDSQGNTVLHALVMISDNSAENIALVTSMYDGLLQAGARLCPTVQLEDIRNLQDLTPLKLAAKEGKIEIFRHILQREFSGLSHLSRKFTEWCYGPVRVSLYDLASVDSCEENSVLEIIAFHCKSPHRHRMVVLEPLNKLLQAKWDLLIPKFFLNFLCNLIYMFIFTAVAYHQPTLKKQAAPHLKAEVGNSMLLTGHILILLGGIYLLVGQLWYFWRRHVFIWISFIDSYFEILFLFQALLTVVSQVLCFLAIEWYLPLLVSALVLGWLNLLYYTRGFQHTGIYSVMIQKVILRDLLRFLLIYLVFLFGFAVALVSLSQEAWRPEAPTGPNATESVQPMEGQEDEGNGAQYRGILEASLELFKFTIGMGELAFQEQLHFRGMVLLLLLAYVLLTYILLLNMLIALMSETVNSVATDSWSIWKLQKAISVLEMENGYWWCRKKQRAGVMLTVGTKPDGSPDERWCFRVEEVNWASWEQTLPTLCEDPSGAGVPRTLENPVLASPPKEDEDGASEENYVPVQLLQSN

[6] = system: patients with steroid-dependent bronchial asthma; details: cited from earlier work
[7] = system: patients with reversible obstructive ventilatory disorders; details: cited from earlier work
blood monocytes = details: cited from earlier work
lymphocytes = details: cited from earlier work
monocytes = details: cited from earlier work
[8] = system: superoxide, super oxide dismutase, hydrogen peroxide, 8-isoprostanes; details: cited from earlier work
avian coronavirus (IBV) = details: cited from earlier work
mice [9] = details: oral, mice, 28-d; cited from earlier work

CB2 receptor, sequence (P34972 whole entry): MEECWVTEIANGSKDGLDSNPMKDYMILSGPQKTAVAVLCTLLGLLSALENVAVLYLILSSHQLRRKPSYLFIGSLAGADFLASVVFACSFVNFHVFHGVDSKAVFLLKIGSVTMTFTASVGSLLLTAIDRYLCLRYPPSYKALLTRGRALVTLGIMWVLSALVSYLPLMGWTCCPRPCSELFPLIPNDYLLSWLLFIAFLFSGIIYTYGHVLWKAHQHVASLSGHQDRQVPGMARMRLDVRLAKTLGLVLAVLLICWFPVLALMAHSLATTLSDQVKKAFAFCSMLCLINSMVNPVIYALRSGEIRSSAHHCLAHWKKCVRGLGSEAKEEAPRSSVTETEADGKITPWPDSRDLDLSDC

Compound: C=C1CC/C=C(\C)CC[C@@H]2[C@@H]1CC2(C)C [β-caryophyllene]
- Concentration in Epithelial Lining Fluid ([1]; Table A2 Preferred Base Viral Nebulizer Liquid): 600 µg/mL
- Concentration in Epithelial Lining Fluid ([1]; Table A3 Preferred Viral Respiratory Challenged Nebulizer Liquid): 970 µg/mL
- Concentration in Epithelial Lining Fluid ([1]; Table A4 Preferred Bacterial Pneumonia Nebulizer Liquid): 1450 µg/mL
- Concentration in Epithelial Lining Fluid ([1]; Table A6 Preferred Base Nebulizer Liquid with Amino Acids): 1450 µg/mL
- Ki (CB2 receptor): 0.155 µM
- Minimum Inhibitory Concentration (MIC) (E. coli (MTCC 732)): 9.0 ± 2.2 µM
- MIC (S. aureus): 3 µM (≈ 0.613 µg/mL)
- MIC (K. pneumoniae): 14 µM (≈ 2.86 µg/mL)
- MIC (P. aeruginosa): 7 µM (≈ 1.43 µg/mL)
- IC50 [2]: 0.25 µM
- selectivity index (DENV-2 (Dengue Virus 2); DENV-2, non-cytostatic): 71.1
- IC50 (DENV-2 (Dengue Virus 2)): 22.5 µM
- IC50, DENV-2 (DENV-2 (Dengue Virus 2)): 4.6 µg/mL (≈ 22.5 µM)
- cytotoxic IC50 [3]: 28.18 ± 1.96 µg/mL
- cytotoxic IC50 (NCI-H358 cells): 31.19 ± 2.01 µg/mL
- LPS-stimulated IL-1β and TNF-α expression (human whole blood): inhibits
- LD50 ([4]; in vivo): > 5,000 mg/kg
- factor NOAEL over daily inhaled dose (mice [5]): 868 times
- NOAEL for a 62 kg adult human (mice [5]): 43,400 mg per day

Compound: CC12CCC(CC1)C(C)(C)O2 [1,8-cineole]
- activation of hTRPA1 (hTRPA1): did not activate
- activation of hTRPM8 (human TRPM8 (hTRPM8)): activates
- estimated concentration in the epithelial lining fluid of the lungs ([1]; human): 614 µg/mL
- activation of hTRPV1 (TRPV1): did not activate
- activation of hTRPV2 (hTRPV2): did not activate
- mean reduction in daily prednisolone dosage ([6]; 200 mg 3 times per day orally, 12 weeks, placebo 0.91 mg): 3.75 mg
- reductions in daily prednisolone dosage tolerated ([6]; 200 mg 3 times per day orally, 12 weeks, placebo 7%): 36%
- patients achieving a reduction of oral steroids ([6]; 1,8-cineole group, placebo four out of 16): Twelve of 16
- improvement of airway resistance ([7]; treatment duration eight weeks): −21%
- improvement of airway resistance ([7]; treatment duration one week): −23%
- production of LTB4 from monocytes ex vivo (blood monocytes; day 4, healthy volunteers): −57.9%
- production of PGE2 from monocytes ex vivo (blood monocytes; day 4, healthy volunteers): −42.7%
- production of LTB4 from monocytes ex vivo (blood monocytes; day 4, patients with bronchial asthma, 200 mg 3 times/day): −40.3%
- production of PGE2 from monocytes ex vivo (blood monocytes; day 4, patients with bronchial asthma): −31.3%
- inhibition of IL-1β production by lymphocytes (lymphocytes; 0.15 μg/ml): 36%
- inhibition of TNF-α production by lymphocytes (lymphocytes; 0.15 μg/ml): 16%
- inhibition of IL-4 production in lymphocytes (lymphocytes; 1.5 μg/mL): 70%
- inhibition of IL-5 production in lymphocytes (lymphocytes; 1.5 μg/mL): 65%
- inhibition of TNFα production in lymphocytes (lymphocytes; 1.5 μg/mL): 92%
- inhibition of cytokine production in lymphocytes, second value (cytokine not named) (lymphocytes; 1.5 μg/mL): 84%
- inhibition of IL-1β production by monocytes (monocytes; 0.15 μg/ml): 61%
- inhibition of TNFα production by monocytes (monocytes; 0.15 μg/ml): 77%
- inhibition of IL-1β production in monocytes (monocytes; 1.5 μg/mL): 84%
- inhibition of IL-6 production in monocytes (monocytes; 1.5 μg/mL): 76%
- inhibition of IL-8 production in monocytes (monocytes; 1.5 μg/mL): 65%
- inhibition of TNFα production in monocytes (monocytes; 1.5 μg/mL): 99%
- LPS-stimulated 8-isoprostanes ([8]; 10^−5 M): −84%
- LPS-stimulated 8-isoprostanes ([8]; 10^−6 M): −42%
- IC50 (avian coronavirus (IBV)): 610 µM
- NOAEL (mice [9]): 562.5 mg/kg
- LD50 ([4]; in vivo): 2,480 mg/kg
- LD50 ([4]; oral, rat): 2,480 mg/kg
- factor NOAEL over daily inhaled dose (mice [5]): 697.5 times
- NOAEL for a 62 kg adult human (mice [5]): 34,875 mg per day
